Measurements taken from patent US6080871A, “Sulfonamides and sulfamides as H3 receptor antagonists” (James Black Foundation Limited, priority 1996, dated 2000).

Each molecule was assayed against T1, H3 receptor (Cavia porcellus, UniProt Q9JI35) (assay: H3 receptor bioassay (functional assay), guinea pig ileal longitudinal muscle myenteric plexus). Conditions: antagonism of R-(α)-methylhistamine E/[A] curve, Schild's methods; electrically stimulated guinea pig ileum; variance ±0.15 log units.
T1 construct: the longitudinal muscle layer and adhering myenteric plexus was teased away; from tissue; host or cells: ileal longitudinal muscle with adhering myenteric plexus of male Dunkin-Hartley guinea pigs
T1 sequence (Q9JI35 whole entry): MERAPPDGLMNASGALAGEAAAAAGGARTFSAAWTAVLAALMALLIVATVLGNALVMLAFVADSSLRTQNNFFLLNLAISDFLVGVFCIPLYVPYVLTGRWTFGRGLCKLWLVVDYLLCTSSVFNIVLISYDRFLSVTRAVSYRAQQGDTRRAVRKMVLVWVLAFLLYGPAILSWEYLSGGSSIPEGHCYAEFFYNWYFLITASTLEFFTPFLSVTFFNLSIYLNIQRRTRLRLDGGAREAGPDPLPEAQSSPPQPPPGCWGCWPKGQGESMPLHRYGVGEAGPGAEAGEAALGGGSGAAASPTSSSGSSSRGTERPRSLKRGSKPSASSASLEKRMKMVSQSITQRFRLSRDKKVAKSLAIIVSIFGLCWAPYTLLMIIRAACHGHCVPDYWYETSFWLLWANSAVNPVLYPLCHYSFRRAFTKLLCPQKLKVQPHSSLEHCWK
Assay type: cell-based
Procedure: The biological activity of the compounds of the examples was measured using the ileal longitudinal muscle, myenteric plexus assay described by Paton and Aboo Zar (J. Physiol. 194, 13-33 (1968)). Male Dunkin-Hartley guinea pigs (250-300 g) were employed. Briefly, a 50 cm portion of ileum proximal to the caecum was removed, after discarding the terminal 20 cm. Ileal segments (3 cm) were cleaned by passing Krebs-Henseleit buffer containing 3 μM mepyramine gently through the ileum using a Pasteur pipette (size: 13.8 cm length, 0.65 cm diameter). To avoid unnecessary damage to the tissue, Krebs-Henseleit buffer was passed through the ileal segment, while it was lying horizontally on a petri dish. Therefore, the ileum was not over-distended and the buffer flowed through with ease. Each segment was then passed over a Pasteur pipette and the longitudinal muscle layer and adhering myenteric plexus was teased away using moist cotton wool, by stroking tangentially away from the mesenteric attachment. The tissues were suspended in 20 ml organ baths containing Krebs-Henseleit buffer at 37±1° C. and gassed with […]. The tissues were ligated to two parallel stainless steel wires, situated between two platinum electrodes (0.76 cm length, 0.06 cm diameter). All measurements were recorded isometrically (Grass FTO3 transducer). Following an initial loading tension of 1 g, the tissues were stimulated with electrical pulses at a frequency of 0.1 Hz and a pulse duration of 0.5msec, as described by Kosterlitz & Watt (1968). Initially, the tissues were stimulated at supramaximal (1.3 fold times maximal) voltage for a period of 30 min and then the tissues were washed and re-stimulated. A "sighter dose" of the selective histamine H3 -receptor agonist, R-(α)-methylhistamine(0.3 μM) (Arrang et al., 1987), was administered. Upon generation of response, the "sighter dose" was removed from the tissues by "washout" (6 washes over 60 min) and during this period the electrical stimulation was switched off. The tissues were then re-stimulated and allowed to stabilise prior to the addition of drug treatments, which were allocated on a randomised block basis to the organ baths. Following the incubation period, a single cumulative E/[A] curve was obtained. The experimental E/[A] curve data was expressed as the percentage inhibition of the peak height of electrically-stimulated contraction. Antagonist affinity values were calculated from the degree of rightward shift of the R-(α)-methylhistamine E/[A] curves using Schild's methods (Arunlatcshama & Schild, 1949).
(§1) Typical variance in the functional assay is ±0.15 log units. Typical variance in the binding assay is ±0.12 log units. This means that if the discrepancy between the two assays is greater than about 0.5 log units, then this difference on average is significant.
`O=S(=O)(NCCc1c[nH]cn1)NCc1ccccc1` [Example 35, N-[2-(4(5)-Imidazoyl)ethyl]-N'-phenylmethyl-sulfamide] was tested, and the “pKB (functional assay)” value was 5.59.

Same assay, conditions: antagonism of R-(α)-methylhistamine E/[A] curve, Schild's methods; electrically stimulated guinea pig ileum; variance ±0.15 log units; read-out: pKB (functional assay) (converted)
`O=S(=O)(NCCc1c[nH]cn1)c1ccc(Cl)c(Cl)c1` [Example 16, N-[2-(4(5)-Imidazoyl)ethyl]-3,4-dichlorobenzenesulfonamide] gave a Kb of 170 nM.
With `O=S(=O)(NCCCCCCc1c[nH]cn1)c1ccc2ccccc2c1` [Example 8] the Kb was 77.6 nM.
Molecule `O=S(=O)(Cc1ccc(Cl)cc1)NCCCCCCCc1c[nH]cn1` [Example 32, N-[7-(4(5)-Imidazoyl)heptyl]-(4-chlorophenyl)methanesulfonamide] has a Kb of 43.7 nM.
Molecule `O=S(=O)(NCCCCCCCc1c[nH]cn1)NCc1ccc(Cl)cc1` [Example 38, N-[7-(4(5)-Imidazoyl)heptyl]-N'-(4-chlorophenyl)methyl-sulfamide] has a Kb of 4.27 nM.
For `O=S(=O)(NCc1ccc(Br)cc1)N(CCCCc1c[nH]cn1)Cc1ccc(Br)cc1` [Example 67, N,N'-Di-[(4-bromophenyl)methyl]-N-[4-(4(5)-imidazoyl)butyl]-sulfamide], the Kb was 603 nM.
For `O=S(=O)(CCc1ccc(Cl)cc1)NCCCCc1c[nH]cn1` [Example 55], the Kb was 6.03 nM.
With `O=S(=O)(Cc1ccc(-c2ccccc2)cc1)NCCCCc1c[nH]cn1` [Example 84, N-[4-(4(5)-Imidazoyl)butyl]-(4-biphenyl)methanesulfonamide] the Kb was 7.94 nM.
With `O=S(=O)(NCCCc1c[nH]cn1)c1ccccc1` [Example 27, N-[3-(4(5)-Imidazoyl)propyl]-benzenesulfonamide] the Kb was 7760 nM.
Work on `O=S(=O)(NCCc1c[nH]cn1)NCc1ccc(Cl)cc1` [Example 37, N-[2-(4(5)-Imidazoyl)ethyl]-N'-(4-chlorophenyl)methyl-sulfamide] yielded a Kb of 1950 nM.
For `CN(CCCCc1c[nH]cn1)S(=O)(=O)CCc1ccc(Cl)cc1` [Example 85, N-[4-(4(5)-Imidazoyl)butyl]-N-methyl-2-(4-chlorophenyl)ethanesulfonamide], the Kb was 8.91 nM.
In the case of `COC(=O)[C@H](Cc1c[nH]cn1)NS(=O)(=O)c1ccc2ccccc2c1` [Example 73, 3-(4(5)-Imidazoyl)-2S-(2-naphthalene)sulfonamino-propionic Acid Methyl Ester], the Kb is reported as 10200 nM.
In the case of `O=S(=O)(NCCc1c[nH]cn1)c1ccccc1` [Example 2, N-[2-(4(5)-Imidazoyl)ethyl]-benzenesulfonamide], the Kb is reported as 2400 nM.
For `O=S(=O)(CCCc1ccccc1)NCCc1c[nH]cn1` [Example 18, N-[2-(4(5)-Imidazoyl)ethyl]-3-phenylpropanesulfonamide], the Kb was 162 nM.
For `O=S(=O)(Cc1ccc(Cl)cc1)NCCCc1c[nH]cn1` [Example 26, N-[3-(4(5)-Imidazoyl)propyl]-(4-chlorophenyl)methanesulfonamide], the Kb was 513 nM.
Work on `O=S(=O)(NCCCc1c[nH]cn1)c1ccc2ccccc2c1` [Example 28, N-[3-(4(5)-Imidazoyl)propyl]-2-naphthalenesulfonamide] yielded a Kb of 4070 nM.
`O=S(=O)(CCCC1CCCCC1)NCCc1c[nH]cn1` [Example 4, N-[2-(4(5)-Imidazoyl)ethyl]-3-cyclohexylpropanesulfonamide] gave a Kb of 398 nM.
For `O=S(=O)(CCc1ccccc1)NCCc1c[nH]cn1` [Example 17, N-[2-(4(5)-Imidazoyl)ethyl]-2-phenylethanesulfonamide], the Kb was 447 nM.
In the case of `O=S(=O)(NCCc1c[nH]cn1)c1cccc2ccccc12` [Example 3, N-[2-(4(5)-Imidazoyl)ethyl]-1-naphthalenesulfonamide], the Kb is reported as 537 nM.
`O=S(=O)(NCCCc1c[nH]cn1)NCc1ccccc1` [Example 36, N-[3-(4(5)-Imidazoyl)propyl]-N'-phenylmethyl-sulfamide] was tested, and the Kb was 692 nM.
`O=S(=O)(N[C@@H]1C[C@H]1c1c[nH]cn1)c1ccc2ccccc2c1` (relative stereo) [Example 72, N-[2-(4(5)-Imidazoyl)-trans-cyclopropyl]-2-naphthalenesulfonamide] showed a Kb of 955 nM.

Same assay, conditions: guinea pig; printed beside 4.99 in the line of Example 73; read-out: α (functional assay)
For `COC(=O)[C@H](Cc1c[nH]cn1)NS(=O)(=O)c1ccc2ccccc2c1` [Example 73, 3-(4(5)-Imidazoyl)-2S-(2-naphthalene)sulfonamino-propionic Acid Methyl Ester], the Emax was roughly 20%.

These molecules were tested against T2, Histamine H3 (Cavia porcellus, UniProt Q9JI35) (assay: Histamine H3 radioligand binding assay, [3H]-R-α-methylhistamine, guinea pig ileum longitudinal muscle myenteric plexus membranes). Conditions: not given.
T2 construct: ileum longitudinal muscle myenteric plexus membranes; from tissue; host or cells: ileum longitudinal muscle myenteric plexus membranes of male Dunkin Hartley guinea pigs
T2 sequence (Q9JI35 whole entry): as above
Procedure: Histamine H3 Radioligand Binding Assay
Male Dunkin Hartley guinea pigs (200-300 g) were used. The small intestine was rapidly removed (cut ~5 cm from caecum and 5 cm from stomach) and placed in ice-cold 20 mM Hepes-NaOH buffer (pH7.4 at 21±3° C.). The tissue was cut into ~10 cm segments, flushed through with ice-cold 20 mM Hepes-NaOH buffer and placed in a beaker containing fresh buffer at 4° C. 10 cm segments of ileum were threaded onto a glass pipette and the longitudinal muscle myenteric plexus was peeled away from the circular muscle using damp cotton-wool. Longitudinal muscle myenteric plexus was immediately placed in ice-cold Viaspan® solution (~100 ml for tissue from 3 guinea pigs) and placed in the refrigerator for 24 hours.
Pre-soaked tissue was weighed and minced with scissors. The tissue was then homogenised in Viaspan® using a polytron (Kinematica AG; PT-DA 3020/2TS, 3×~1-2 s). 50 ml of 500 mM Tris HCl (pH6.9 at 21±3° C.) was added to the tissue and the mixture centrifuged at 39,800×g for 12 min at 4° C. The supernatant was discarded and rehomogenised in 100 ml ice-cold 20 mM Hepes-NaOH buffer (pH7.4 at 21±3° C.) using a teflon-in-glass homogeniser (setting 10; 3×). The homogenate was recentrifuged at 39,800×g and the pellet resuspended in 20 mM Hepes-NaOH buffer (pH7.4 at 21±3° C.), to a tissue concentration of 50 mg.ml^-1, using a polytron (Brinkman, PT10, 3×~1 s).
Guinea pig ileum longitudinal muscle myenteric plexus membranes (400 μl) were incubated for 165 min at 21±3° C. in a final volume of 500 μl with 20 mM Hepes-NaOH buffer containing [^3 H]-R-α-methylhistamine (50 μl; 3 nM) and competing compound. Total and non-specific binding of [^3 H]-R-α-methylhistamine were defined using 50 μl of buffer and 50 μl of 10 μM thioperamide, respectively. The assay was terminated by rapid filtration through Whatman GF/B filters, presoaked (2 hr) in 0. 1% polyethyleneimine,using a Brandell Cell Harvester. The filters were washed (3×3 ml) with ice-cold 50 mM Tris-HCl (pH6.9 at 21±3° C.), transferred into scintillation vials, 5 ml liquid scintillation cocktail was added and after 4 hours the bound radioactivity was determined by counting (4 min) in a Beckman liquid scintillation counter.
Data are analysed using GraphPad prism and the general equation for a competition curve with variable Hill slope (nH).
Y=Non-specific binding+(Total binding-Non-specific binding)/1+10^((logIC.sbsp.50^-X).n.sbsp.H^)
X is the log concentration of competing compound, Y is the binding obtained at each concentration of X, pIC50 is the concentration of the competitor required to compete for half of the specific binding.
The IC50 is converted to the K1 using the Cheng Prusoff equation, […]
IC50 is the concentration of competitor required to compete for half the specific binding, L is the radioligand concentration used, KD is the equilibrium dissociation constant for the radioligand determined by saturation experiments.
as §1
With `O=S(=O)(Cc1ccc(Br)cc1)NCCCCc1c[nH]cn1` [Example 77, N-[4-(4(5)-Imidazoyl)butyl]-(4-bromophenyl)methanesulfonamide] the Ki was 3.09 nM.

Same assay, conditions: 3 nM [3H]-R-α-methylhistamine, 165 min, 21±3° C., Cheng Prusoff; variance ±0.12 log units
For `O=S(=O)(NCCCCCCc1c[nH]cn1)c1ccc2ccccc2c1` [Example 8], the “pK1 (binding assay)” value was 7.49.
For `O=S(=O)(Cc1ccc(Cl)cc1)NCCCCCCCc1c[nH]cn1` [Example 32, N-[7-(4(5)-Imidazoyl)heptyl]-(4-chlorophenyl)methanesulfonamide], the “pK1 (binding assay)” value was 7.44.
With `O=S(=O)(NCCCCCCCc1c[nH]cn1)NCc1ccc(Cl)cc1` [Example 38, N-[7-(4(5)-Imidazoyl)heptyl]-N'-(4-chlorophenyl)methyl-sulfamide] the “pK1 (binding assay)” value was 8.15.
`O=S(=O)(Cc1ccc(F)cc1)NCCCCc1c[nH]cn1` [Example 79, N-[4-(4(5)-Imidazoyl)butyl]-(4-fluoromethylphenyl)methanesulfonamide] was tested, and the “pK1 (binding assay)” value was 8.13.
With `O=S(=O)(Cc1ccc(Cl)cc1)NCCCCCCCCCCc1c[nH]cn1` [Example 34, N-[10-(4(5)-Imidazoyl)decyl]-(4-chlorophenyl)methanesulfonamide] the “pK1 (binding assay)” value was 7.23.
With `O=S(=O)(NCCCCCCCCCCc1c[nH]cn1)NCc1ccc(Cl)cc1` [Example 40, N-[10-(4(5)-Imidazoyl)decyl]-N'-(4-chlorophenyl)methyl-sulfamide] the “pK1 (binding assay)” value was 6.02.

Same assay, conditions: 3 nM [3H]-R-α-methylhistamine, 165 min, 21±3° C., Cheng Prusoff; variance ±0.12 log units; read-out: pK1 (binding assay) (converted)
`O=S(=O)(NCc1ccc(Br)cc1)N(CCCCc1c[nH]cn1)Cc1ccc(Br)cc1` [Example 67, N,N'-Di-[(4-bromophenyl)methyl]-N-[4-(4(5)-imidazoyl)butyl]-sulfamide] was tested, and the Ki was 141 nM.
Molecule `O=S(=O)(CCc1ccc(Cl)cc1)NCCCCc1c[nH]cn1` [Example 55] has a Ki of 7.76 nM.
With `O=S(=O)(NCCCCc1c[nH]cn1)NCC12CC3CC(CC(C3)C1)C2` [Example 52, N-[4-(4(5)-Imidazoyl)butyl]-N'-adamant-1-ylmethyl-sulfamide] the Ki was 200 nM.
With `O=S(=O)(Cc1ccc(C(F)(F)F)cc1)NCCCCc1c[nH]cn1` [Example 78, N-[4-(4(5)-Imidazoyl)butyl]-(4-trifluoromethylphenyl)methanesulfonamide] the Ki was 3.55 nM.
`C[C@H](NS(=O)(=O)NCCCCc1c[nH]cn1)c1ccccc1` [Example 81, N-[4-(4(5)-Imidazoyl)butyl]-N'-(1S-phenylethyl)-sulfamide] was tested, and the Ki was 145 nM.
With `O=S(=O)(NCCCCCc1c[nH]cn1)NCc1ccc(-c2ccccc2)cc1` [Example 82, N-[5-(4(5)-Imidazoyl)pentyl]-N'-(4-biphenyl)methyl-sulfamide] the Ki was 27.5 nM.
`C[C@@H](NS(=O)(=O)NCCCCc1c[nH]cn1)c1ccccc1` [Example 80, N-[4-(4(5)-Imidazoyl)butyl]-N'-(1R-phenylethyl)-sulfamide] showed a Ki of 174 nM.
